Each block holds one molecule with its values, some of them ahead of it.
Assays:
[1] = Physical stability under Accelerated Aging Conditions (AAC, 40° C./75% RH, 2 days), HT-XRPD; settings: for Physical Stability: AAC 40° C./75% RH, 2 days, re-analyzed by HT-XRPD; for physical stability upon exposure to AAC: Example 2
Procedure: The solids were separated from the liquid phases by centrifugation, dried overnight under vacuum at 50° C. and analyzed by HT-XRPD. Solvents from the remaining mother liquors and solutions were evaporated under ambient conditions (evaporative crystallization experiments) and the residual solids were analyzed by HT-XRPD.
Slurries of the amorphous solids (GEN9 and GEN16, respectively) were prepared in 15 solvents at room temperature. The suspensions were subjected to a temperature profile, which comprised of three heating and cooling cycles. At the end of the temperature profile, the solids were isolated by centrifugation and dried at ambient conditions and under vacuum at 50° C. Upon completion of all crystallization experiments, all solids were analyzed by HT-XRPD.

[2] = Aqueous solubility of salts, Example 1 (aliquot addition; HPLC after 24 h at RT; pH of solutions/mother liquors)
Procedure: The aqueous solubility of the salts was estimated qualitatively by the solvent aliquot addition method. Aliquots of water up to 500-600 μL were added to approximately 5 mg of salt. The solubility of the free base was also estimated.
The suspensions were let equilibrating at room temperature for 24 h. Afterwards, solids were separated from the liquid phases. The liquid phases were filtered and analyzed by HPLC to determine the solubility. The pH of solutions/mother liquors was also measured.
Suspensions of the two salts were prepared in water with a concentration of 9-10 mg/mL. The mixtures were let equilibrating at RT for 24 h. Afterwards, solids were separated from the liquid phases. The liquid phases were filtered and analyzed by HPLC to determine the solubility. The pH of mother liquors was also measured.

[3] = Hygroscopicity by Dynamic Vapor Sorption (DVS); format: physicochemical
Procedure: The hygroscopic behaviour of the salts was evaluated through Dynamic Vapor Sorption (DVS) measurements with an RH profile 40-95-0-40% at 25° C. and a dm/dt of 0.002. The classification of the hygroscopic behaviour is based on the water vapour uptake at 25° C./80% RH in first adsorption cycle of sorption isotherm.

[4] = Polymorphism: solid forms found in salt screen by HT-XRPD; format: physicochemical; settings: Example 1 salt screen in MeOH, DME, THF
Procedure: (§1) The precipitated solids were analyzed by high throughput X-ray powder diffractometry (HT XRPD). Liquid phases (both solutions and mother liquors) were evaporated at ambient conditions and the residual solids were analyzed by HT XRPD.
The salt screen experiments were carried out in methanol (MeOH), 1,2-dimethoxyethane (DME) and tetrahydrofuran (THF).

[5] = Aqueous solubility at RT, Example 2 (water aliquot addition up to 1600 μL); format: physicochemical; settings: for dissolution in water: water aliquots up to 1600 μL; for dissolution in water after heating: suspension in 1600 μL water heated to 50° C. for 15 min
Procedure: Aqueous solubility was determined for the anhydrous and hydrated salt forms, as well as for the salts found after the stability study. Aliquots of water were added to the solid salts until dissolution occurred or 1600 μL of water was added. The lactate salt was taken along in the solubility studies as a reference. […] The results (in mg/mL free base dissolved for better comparison between salt forms) of the solubility determination performed in water are reported in Table 9.
Upon completion of the solubility determination, the remaining solids were separated from the liquid phases and allowed to air dry. Dried solids were analyzed by HT-XRPD.

[6] = Crystallinity of salt forms by HT-XRPD; format: physicochemical; settings: salt screen solid forms
Procedure: as §1
XRPD patterns were obtained using the Ardena T2 high-throughput XRPD set-up. The plates were mounted on a Bruker General Area Detector Diffraction System (GADDS) equipped with a VÅNTEC-500 gas area detector corrected for intensity and geometric variations. The calibration of the measurement accuracy (peaks position) was performed using NIST SRM1976 standard (Corundum).
No background subtraction or curve smoothing was applied to the XRPD patterns.

[7] = Thermal stability of benzamil in solution (UPLC MS); format: physicochemical; settings: ethanol, ~0.5 mg/mL, 1 h
Procedure: The thermal stability of benzamil was evaluated in three solvent systems: acetonitrile:water 1:1, ethanol, and 0.1 M HCl. Solutions of benzamil (˜0.5 mg/mL) were prepared in the selected solvents and split over 3 vials. The solutions were stirred at room temperature, 50° C. and 80° C. for one hour and then analyzed by UPLC MS. The chemical purity of benzamil measured in the solutions incubated at 50° C. and 80° C. for 1 h was compared to that measured initially in the starting solutions.

[8] = Qualitative solubility of benzamil free base in solvents (aliquot addition); format: physicochemical

SMILES: CC(=O)O.NC(=NC(=O)c1nc(Cl)c(N)nc1N)NCc1ccccc1 [ACA1]
Physically stable after AAC ([1]; Example 1, 40° C./75% RH for 2 days): physically stable and Yes | Water solubility ([2]; Example 1, RT, aliquot addition (ranges) or HPLC after 24 h, not in Table 3): 15000 to 19000 µg/mL | water vapour uptake ([3]; 25° C./80% RH, first adsorption cycle): 0.1% | classification of hygroscopic behaviour ([3]; based on water vapour uptake at 25° C./80% RH): non hygroscopic | Polymorphism [4]: Yes

SMILES: CCCC(=O)O.NC(=NC(=O)c1nc(Cl)c(N)nc1N)NCc1ccccc1 [BUT1]
dissolution in water ([5]; RT): Full dissolution | Crystallinity [6]: Good | Physical Stability [1]: Stable | physical stability upon exposure to AAC ([1]; 40° C./75% RH for 2 days): physically stable

chemical stability in solution ([7]; 50° C.): stable | chemical stability in solution ([7]; 80° C.): some chemical degradation was observed | qualitative solubility ([8]; 1,2-dimethoxyethane): slightly soluble | effect of temperature on solubility ([8]; THF suspension, 50° C. for 30 min): slightly improved the solubility | qualitative solubility ([8]; methanol): slightly soluble | qualitative solubility ([8]; most of the tested solvents (ethanol, water, 1,4-dioxane, acetonitrile, TBME, heptane, ethylacetate, THF), approximately 3 mg/mL): insoluble | Water solubility [2]: practically insoluble | solubility at 24 h ([2]; water, thermodynamic from solid): < 100 µg/mL | Polymorphism [4]: Yes
SMILES: NC(=NCc1ccccc1)NC(=O)c1nc(Cl)c(N)nc1N [Benzamil free base, 3,5-diamino-N—(N′-benzylcarbamimidoyl)-6-chloropyrazine-2-carboxamide]

SMILES: NC(=NC(=O)c1nc(Cl)c(N)nc1N)NCc1ccccc1.O=CO [FOR3]
dissolution in water after heating [5]: dissolved | Crystallinity [6]: Good

SMILES: Br.N=C(NCc1ccccc1)NC(=O)c1nc(Cl)c(N)nc1N [HBR1]
dissolution in water after heating [5]: dissolved | Crystallinity [6]: Moderate | Physical Stability [1]: Stable | physical stability upon exposure to AAC ([1]; 40° C./75% RH for 2 days): physically stable

SMILES: NC(=NC(=O)c1nc(Cl)c(N)nc1N)NCc1ccccc1.O=C(O)CC(=O)O [MAO1]
dissolution in water after heating [5]: dissolved | Crystallinity [6]: Good | Physical Stability [1]: Stable | physical stability upon exposure to AAC ([1]; 40° C./75% RH for 2 days): physically stable

SMILES: CS(=O)(=O)O.NC(=NC(=O)c1nc(Cl)c(N)nc1N)NCc1ccccc1 [MES1]
aqueous solubility compared with starting material (LAC1) ([5]; RT): better solubility value than the starting material (LAC1) | behaviour after full dissolution in water ([5]; RT): precipitation was observed after full dissolution | dissolution in water ([5]; RT): Full dissolution | behaviour in repeated aqueous solubility determination ([5]; aiming for 50 mg/ml, RT): quickly dissolved at RT and after 15 min it crashed out again as a white solid | Crystallinity [6]: Good | Physical Stability [1]: Stable | physical stability upon exposure to AAC ([1]; 40° C./75% RH for 2 days): physically stable

SMILES: Cl.NC(=NC(=O)c1nc(Cl)c(N)nc1N)NCc1ccccc1 [Mono-HCl (ref)]
Concentration FB [2]: 2400 to 3000 µg/mL

SMILES: CCC(=O)O.NC(=NC(=O)c1nc(Cl)c(N)nc1N)NCc1ccccc1 [PRO2]
dissolution in water after heating [5]: dissolved | Crystallinity [6]: Moderate

— patent publication US20250002463A1, “NEW SALT FORMS OF AMILORIDE AND ITS DERIVATIVES FOR PHARMACEUTICAL USE” (PSOMRI Holding AB, priority 2021, published 2025)
